# According to PubChem BioAssay (NCI):
#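 Cells were grown in 96-well plates and exposed to each compound for 48 hours at five concentrations; endpoints were interpolated linearly between bracketing concentrations, or set to the highest concentration if not reached. GI50 marks 50% less growth. TGI: concentration producing complete growth inhibition.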
# Key:
# Assay in all cases: growth of human tumour cells (NCI), 48 h
# ACHN renal = tested on: ACHN renal
# COLO 205 colon = tested on: COLO 205 colon
# EKVX NSCLC = tested on: EKVX NSCLC
# HS 578T breast = tested on: HS 578T breast
# MDA-MB-435 = tested on: MDA-MB-435
# NCI-H460 lung = tested on: NCI-H460 lung
# OVCAR-4 ovarian = tested on: OVCAR-4 ovarian
# PC-3 prostate = tested on: PC-3 prostate
# SF-539 CNS = tested on: SF-539 CNS
# SK-MEL-28 melanoma = tested on: SK-MEL-28 melanoma
SMILES,GI50 (ACHN renal) [µM],TGI (ACHN renal) [µM],GI50 (COLO 205 colon) [µM],TGI (COLO 205 colon) [µM],GI50 (EKVX NSCLC) [µM],TGI (EKVX NSCLC) [µM],GI50 (HS 578T breast) [µM],TGI (HS 578T breast) [µM],GI50 (MDA-MB-435) [µM],TGI (MDA-MB-435) [µM],GI50 (NCI-H460 lung) [µM],TGI (NCI-H460 lung) [µM],GI50 (OVCAR-4 ovarian) [µM],TGI (OVCAR-4 ovarian) [µM],GI50 (PC-3 prostate) [µM],TGI (PC-3 prostate) [µM],GI50 (SF-539 CNS) [µM],TGI (SF-539 CNS) [µM],GI50 (SK-MEL-28 melanoma) [µM],TGI (SK-MEL-28 melanoma) [µM]
O=C(CF)N(O)c1ccc(/C=C/c2ccccc2)cc1,0.736,30,5.83,> 100,15.8,> 100,24.1,> 91.5,8.48,> 100,0.322,> 100,5.49,> 66.9,5.6,> 100,8.17,52.9,> 40.4,> 100
O=C(Nc1cccc(Oc2nnc(Cl)c3ccccc23)c1)Nc1ccc(Cl)c(C(F)(F)F)c1,0.711,3.8,0.97,3.9,0.646,6.49,1.72,8.18,0.791,3.24,0.898,3.44,0.593,6.01,0.545,2.51,1.38,4.01,0.933,3.54
CC(=O)OCC(=O)O[C@@H]1C[C@]2(C(C)C)O[C@@]1(C)[C@@H]1CC[C@@H](C)[C@H]1[C@@H]2OC(=O)/C=C/c1ccccc1,0.0316,12.5,24.2,84.6,13.8,59.1,< 0.0116,0.0363,22,59.7,21.4,60.1,22.7,> 100,7.88,> 100,28.2,> 100,22.3,83.4
Cc1cc(C2=NNC(=O)Cc3cc4c(cc32)OCCO4)cc(C)c1N,6.48,> 100,1.55,11.2,29.7,> 100,3.05,> 100,0.261,0.978,2.64,> 100,6.4,> 100,2.73,> 100,2.73,8.91,5.37,> 100
Oc1c(CN2CCCC2)cc(COCc2ccc(Br)cc2)c2cccnc12,0.241,1.97,4.62,18.7,0.723,11.8,2.82,17.1,1.49,14.4,0.433,2.01,0.508,3.02,1.01,5.97,1.11,2.85,1.16,6.31
O=C(Nc1ccc(CN2CCOCC2)cc1)c1[nH]ncc1Nc1ncnc2sccc12,–,–,–,–,0.805,4.3,0.14,4.81,0.525,11.7,0.314,10.9,0.6,6.28,0.494,> 100,0.141,1.15,0.629,16.8
O=C(O)CCC(=O)c1ccc2ccc3cccc4ccc1c2c34,–,> 100,–,> 100,–,> 100,–,> 100,–,> 100,–,> 100,–,> 100,–,> 100,–,68,–,> 100
CC1CCN(CCCCCOc2ccc3oc4cc(Cl)ccc4c(=O)c3c2)CC1,8.01,14.7,6.09,14.1,7.03,14.3,7.32,17.8,1.55,5.23,6.63,13.9,6.22,13.6,6.89,16.4,5.9,12.3,7.07,13.7
CN(C)c1ncnc2c1nnn2C1OC(CO)C(O)C1O (stereo not given),0.141,> 54,0.194,0.769,2.33,> 100,0.632,> 100,0.234,> 100,0.247,> 100,0.0558,> 100,0.271,> 45.5,0.503,> 90.6,0.404,> 85.2
C/C1=C/C2=CC(C)C[C@@H]2C(=O)[C@]2(C)C(=O)CC(C)(C)[C@H]2CC1=O (stereo not given in full),–,> 50,–,> 50,–,> 50,–,> 50,–,> 50,–,> 50,–,> 50,–,> 50,–,> 50,–,–
